# Laboratory results published in ChEMBL document CHEMBL1201862, “PubChem BioAssay data set” (2004).
# Active and inactive are the calls of the source.
# Legend:
# [1] = ADAM10 inhibitors, peptide cleavage, dose response, biochemical, QFRET (AID 743254);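 also: ADAM10 enzyme with the DM2 quenched FRET peptide as substrate; EDANS fluorescence gain as the protease cuts the substrate; inhibitor potency against ADAM10 proteolytic activity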
# [2] = biological target: T1, Estrogen receptor (Homo sapiens, UniProt P03372);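 also: potency for inhibiting coactivator peptide recruitment to the receptor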
# T1 sequence (P03372 whole entry): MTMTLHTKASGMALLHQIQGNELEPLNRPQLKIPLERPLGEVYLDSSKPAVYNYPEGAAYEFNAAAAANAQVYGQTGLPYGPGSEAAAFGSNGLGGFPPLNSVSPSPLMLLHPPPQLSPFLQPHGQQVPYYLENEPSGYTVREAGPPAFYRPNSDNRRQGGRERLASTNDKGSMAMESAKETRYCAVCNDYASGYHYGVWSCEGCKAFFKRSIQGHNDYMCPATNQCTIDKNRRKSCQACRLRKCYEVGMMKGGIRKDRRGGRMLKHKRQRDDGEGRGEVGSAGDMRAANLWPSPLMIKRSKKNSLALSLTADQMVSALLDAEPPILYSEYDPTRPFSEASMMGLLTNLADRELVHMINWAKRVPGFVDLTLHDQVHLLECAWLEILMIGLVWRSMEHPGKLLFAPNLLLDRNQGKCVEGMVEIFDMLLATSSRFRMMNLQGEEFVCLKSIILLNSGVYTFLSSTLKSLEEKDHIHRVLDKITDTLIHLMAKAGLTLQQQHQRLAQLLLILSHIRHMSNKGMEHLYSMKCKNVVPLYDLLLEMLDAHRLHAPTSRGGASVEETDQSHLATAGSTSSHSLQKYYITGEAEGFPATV
# [3] = biological target: Cytochrome P450 2C9 (Homo sapiens, UniProt P11712); conditions: Potency
# [4] = ZM109 Env clade C HIV-1 fusion inhibitors, dose response, HeLa effector, CEM target cells, luciferase, cherry-pick (AID 652058); type: functional, cell-based
# [5] = inhibitors of HIV Env-driven cell fusion, dose response, cherry-pick (AID 652057); type: functional, cell-based
# [6] = inhibitors of clade B AD8 Env fusion, dose response, cell-based, cherry-pick (AID 652062); type: functional;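 also: luciferase signal from cell-cell fusion driven by HIV-1 clade B AD8 Env; potency is for inhibitors of fusion seen as a drop in luminescence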
# [7] = off-target signal loss in HeLa-CEM21 co-culture – HeLa F-luc CTL cells, cherry-picked, counter-screen for HIV-1 Env fusion inhibitor project, dose response (AID 652040); type: functional, cell-based;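 also: potency for signal decrease marking cytotoxic or nonspecific inhibition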
# [8] = biological target: T2, Calpain-2 catalytic subunit (Sus scrofa, UniProt P43367); experiment: pig calpain II inhibitor potency, dose response, biochemical, fluorogenic peptide substrate (AID 1420); type: functional
# T2 sequence (P43367 whole entry): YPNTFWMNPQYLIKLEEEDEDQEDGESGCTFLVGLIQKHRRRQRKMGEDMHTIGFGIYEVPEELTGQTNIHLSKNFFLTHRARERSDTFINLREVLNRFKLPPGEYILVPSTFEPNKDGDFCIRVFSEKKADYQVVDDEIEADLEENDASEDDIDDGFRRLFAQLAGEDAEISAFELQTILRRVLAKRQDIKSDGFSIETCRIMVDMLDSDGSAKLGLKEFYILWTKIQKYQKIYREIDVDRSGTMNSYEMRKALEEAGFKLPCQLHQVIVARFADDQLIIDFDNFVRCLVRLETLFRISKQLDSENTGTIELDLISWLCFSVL
# [9] = biological target: T3, Low molecular weight phosphotyrosine protein phosphatase (Homo sapiens, UniProt P24666); type: functional; conditions: read-out: IC50_Mean
# T3 sequence (P24666 whole entry): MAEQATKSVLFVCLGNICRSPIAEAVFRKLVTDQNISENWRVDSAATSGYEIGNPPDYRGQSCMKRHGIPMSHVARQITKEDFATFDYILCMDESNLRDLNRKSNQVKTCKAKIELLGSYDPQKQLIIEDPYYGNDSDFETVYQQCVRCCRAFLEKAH
# [10] = biological target: T3, Low molecular weight phosphotyrosine protein phosphatase; type: functional; conditions: read-out: IC50_Mean; remark: listed apart in the source
# [11] = biological target: T4, DNA repair and recombination protein RAD54-like (Homo sapiens, UniProt Q92698); experiment: inhibitors of human RAD54 branch migration, confirmation, biochemical, fluorescence, cherry-picked samples, dose series (AID 651657); type: functional
# T4 sequence (Q92698 whole entry): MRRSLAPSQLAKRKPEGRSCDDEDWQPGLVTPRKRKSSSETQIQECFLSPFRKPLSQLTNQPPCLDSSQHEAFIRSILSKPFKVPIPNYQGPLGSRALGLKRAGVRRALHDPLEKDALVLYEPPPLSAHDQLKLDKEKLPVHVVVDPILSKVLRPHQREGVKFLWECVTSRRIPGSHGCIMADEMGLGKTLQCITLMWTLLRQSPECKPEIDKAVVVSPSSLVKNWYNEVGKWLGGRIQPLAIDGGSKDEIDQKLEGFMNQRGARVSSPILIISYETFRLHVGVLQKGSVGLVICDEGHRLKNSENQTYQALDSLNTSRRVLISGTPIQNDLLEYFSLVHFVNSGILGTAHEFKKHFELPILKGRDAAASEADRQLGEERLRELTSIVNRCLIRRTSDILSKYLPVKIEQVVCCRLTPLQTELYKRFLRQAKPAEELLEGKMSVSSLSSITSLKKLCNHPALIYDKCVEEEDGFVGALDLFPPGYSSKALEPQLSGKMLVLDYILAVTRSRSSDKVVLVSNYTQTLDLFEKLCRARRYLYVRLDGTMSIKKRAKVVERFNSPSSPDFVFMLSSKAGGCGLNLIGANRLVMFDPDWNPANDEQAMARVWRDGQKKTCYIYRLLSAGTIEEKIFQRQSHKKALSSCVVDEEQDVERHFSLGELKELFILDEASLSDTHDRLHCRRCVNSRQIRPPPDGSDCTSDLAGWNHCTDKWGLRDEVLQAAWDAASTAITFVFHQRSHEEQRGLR
# [12] = MC4R antagonists, dose response, counter-screen for LGR2 antagonist project, cell-based, plate reader, cherry pick (AID 743444); type: functional;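 also: transfected HEK 293 cells stimulated with alpha-MSH peptide; potency of inhibitors of the alpha-MSH evoked signal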
# [13] = LGR2 antagonists, dose response, cell-based, HEK293, CRE-luciferase reporter, cherry pick, set 2 (AID 743343); type: functional;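 also: transfected cells were stimulated with diluted bursicon conditioned medium after compound addition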
# [14] = A549 cell cytotoxicity, dose response, cytotoxicity control, plate reader, cherry-pick, antagonist series (AID 743412); type: functional, cell-based
# [15] = HEK293 cell cytotoxicity, dose response, cytotoxicity control, plate reader, cherry-picked samples (AID 743446); type: functional, cell-based
# [16] = biological target: T5, Protein skinhead-1 (Caenorhabditis elegans, UniProt P34707); type: functional
# T5 sequence (P34707 whole entry): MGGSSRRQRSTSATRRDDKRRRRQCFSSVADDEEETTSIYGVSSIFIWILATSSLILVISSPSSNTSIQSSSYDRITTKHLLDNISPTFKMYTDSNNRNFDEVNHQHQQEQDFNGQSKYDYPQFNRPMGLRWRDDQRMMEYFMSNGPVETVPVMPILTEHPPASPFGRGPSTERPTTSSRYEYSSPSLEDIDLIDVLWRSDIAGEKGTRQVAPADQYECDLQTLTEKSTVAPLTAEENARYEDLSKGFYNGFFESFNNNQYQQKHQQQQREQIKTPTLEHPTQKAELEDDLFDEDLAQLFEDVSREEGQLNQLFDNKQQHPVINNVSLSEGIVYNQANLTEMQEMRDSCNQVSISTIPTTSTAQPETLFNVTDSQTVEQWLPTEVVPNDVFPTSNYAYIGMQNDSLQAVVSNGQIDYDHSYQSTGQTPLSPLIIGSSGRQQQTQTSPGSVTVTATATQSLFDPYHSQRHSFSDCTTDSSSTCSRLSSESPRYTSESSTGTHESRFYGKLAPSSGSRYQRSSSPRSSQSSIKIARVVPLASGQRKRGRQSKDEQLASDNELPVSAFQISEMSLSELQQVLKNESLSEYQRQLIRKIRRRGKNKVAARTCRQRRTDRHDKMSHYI
# [17] = biological target: Disintegrin and metalloproteinase domain-containing protein 17 (Homo sapiens, UniProt P78536); experiment: ADAM17 protease inhibitors, dose response, counter-screen for ADAM10 exosite inhibitor project, biochemical, quenched FRET substrate (AID 743253)
# [18] = biological target: Cytochrome P450 3A4 (Homo sapiens, UniProt P08684);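 also: CYP3A4 tested as one member of a cytochrome P450 panel screen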
# [19] = biological target: T6, Mannose-6-phosphate isomerase (Homo sapiens, UniProt P34949); experiment: human PMI inhibitors, high substrate, primary screen, biochemical, fluorescence intensity, high mannose 6-phosphate (AID 1220)
# T6 sequence (P34949 whole entry): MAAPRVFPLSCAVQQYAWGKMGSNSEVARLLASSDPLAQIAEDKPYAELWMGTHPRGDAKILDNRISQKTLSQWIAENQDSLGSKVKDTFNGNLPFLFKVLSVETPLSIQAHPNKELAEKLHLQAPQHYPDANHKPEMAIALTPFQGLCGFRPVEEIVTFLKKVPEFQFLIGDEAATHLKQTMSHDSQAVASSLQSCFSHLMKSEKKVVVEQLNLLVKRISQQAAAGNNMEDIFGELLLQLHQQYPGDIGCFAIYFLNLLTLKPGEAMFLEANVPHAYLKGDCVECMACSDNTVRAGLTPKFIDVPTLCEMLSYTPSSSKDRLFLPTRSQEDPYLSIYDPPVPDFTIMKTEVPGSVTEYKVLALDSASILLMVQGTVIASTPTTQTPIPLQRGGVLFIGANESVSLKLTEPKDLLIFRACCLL
# [20] = biological target: Cytochrome P450 2D6 (Homo sapiens, UniProt P10635);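 also: CYP2D6 member of a cytochrome P450 panel assay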
# [21] = biological target: Eukaryotic translation initiation factor 4E (Mus musculus, UniProt P63073); experiment: eIF4E–eIF4G protein interaction inhibitors, dose response, biochemical, TR-FRET (AID 855); type: functional;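 also: potency for disrupting eIF4E binding to eIF4GI seen as loss of FRET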
# [22] = P. falciparum Dd2 growth inhibitors, dose response, SYBR Green, dry powder samples, set 9 (AID 1159568); type: functional, cell-based
# [23] = intracellular Trypanosoma cruzi inhibitors in host cells – cell-based, plate reader, cherry-pick samples, set 3, dose response (AID 651818); type: functional;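 also: compounds incubated with infected cells for about four days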
# [24] = miR-122 activators in hepatoma reporter cells, dose response, cell-based, Huh7 psiCHECK-miR122, Renilla luciferase, cherry-picked (AID 651956); type: functional;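 also: huh7 hepatoma cells stably carrying a psiCHECK-2 miR-122 sensor plasmid; renilla luciferase signal reporting endogenous miR-122 activity after 48 h compound exposure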
# Sequence of Cytochrome P450 2C9 (P11712 whole entry, the tested form may be a part): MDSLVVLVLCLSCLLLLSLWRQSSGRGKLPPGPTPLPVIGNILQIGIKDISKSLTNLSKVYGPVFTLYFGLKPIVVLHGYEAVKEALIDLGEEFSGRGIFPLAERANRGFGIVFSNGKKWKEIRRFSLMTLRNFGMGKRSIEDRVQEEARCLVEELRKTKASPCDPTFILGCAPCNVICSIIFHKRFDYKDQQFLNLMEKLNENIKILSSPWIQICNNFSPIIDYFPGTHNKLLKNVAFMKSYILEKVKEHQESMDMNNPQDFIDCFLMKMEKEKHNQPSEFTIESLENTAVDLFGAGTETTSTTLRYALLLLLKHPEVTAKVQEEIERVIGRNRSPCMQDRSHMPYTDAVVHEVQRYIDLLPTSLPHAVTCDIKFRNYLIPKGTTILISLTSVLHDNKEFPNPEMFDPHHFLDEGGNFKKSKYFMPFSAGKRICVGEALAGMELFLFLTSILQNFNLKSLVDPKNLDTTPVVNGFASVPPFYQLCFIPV
# Sequence of Disintegrin and metalloproteinase domain-containing protein 17 (P78536 whole entry, the tested form may be a part): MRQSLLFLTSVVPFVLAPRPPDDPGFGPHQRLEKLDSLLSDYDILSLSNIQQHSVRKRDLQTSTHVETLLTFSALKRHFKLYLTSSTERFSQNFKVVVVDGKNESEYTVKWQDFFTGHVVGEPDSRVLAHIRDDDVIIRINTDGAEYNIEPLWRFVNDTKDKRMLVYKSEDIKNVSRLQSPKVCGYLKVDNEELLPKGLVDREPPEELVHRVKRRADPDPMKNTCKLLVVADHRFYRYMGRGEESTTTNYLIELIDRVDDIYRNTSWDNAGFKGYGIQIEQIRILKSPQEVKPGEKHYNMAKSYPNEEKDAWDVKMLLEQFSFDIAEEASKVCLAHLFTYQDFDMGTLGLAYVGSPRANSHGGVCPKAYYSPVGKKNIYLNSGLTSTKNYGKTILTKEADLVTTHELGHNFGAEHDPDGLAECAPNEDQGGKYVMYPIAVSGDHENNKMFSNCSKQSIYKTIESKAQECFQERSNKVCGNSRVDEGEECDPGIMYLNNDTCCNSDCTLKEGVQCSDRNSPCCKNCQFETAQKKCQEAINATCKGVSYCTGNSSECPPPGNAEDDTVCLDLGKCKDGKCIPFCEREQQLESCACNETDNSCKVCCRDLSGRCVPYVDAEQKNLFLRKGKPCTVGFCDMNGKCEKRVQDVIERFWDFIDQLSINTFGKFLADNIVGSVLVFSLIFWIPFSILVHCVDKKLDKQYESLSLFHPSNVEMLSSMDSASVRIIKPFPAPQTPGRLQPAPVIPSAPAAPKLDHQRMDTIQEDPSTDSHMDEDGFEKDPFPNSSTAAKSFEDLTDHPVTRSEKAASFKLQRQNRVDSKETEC
# Sequence of Eukaryotic translation initiation factor 4E (P63073 whole entry): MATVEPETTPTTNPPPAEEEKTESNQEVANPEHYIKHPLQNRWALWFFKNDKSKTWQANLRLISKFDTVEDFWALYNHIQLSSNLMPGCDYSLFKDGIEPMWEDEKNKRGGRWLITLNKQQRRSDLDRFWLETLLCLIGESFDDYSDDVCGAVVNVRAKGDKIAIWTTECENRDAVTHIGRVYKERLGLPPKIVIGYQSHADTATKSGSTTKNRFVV
# Sequence of Cytochrome P450 2D6 (P10635 whole entry): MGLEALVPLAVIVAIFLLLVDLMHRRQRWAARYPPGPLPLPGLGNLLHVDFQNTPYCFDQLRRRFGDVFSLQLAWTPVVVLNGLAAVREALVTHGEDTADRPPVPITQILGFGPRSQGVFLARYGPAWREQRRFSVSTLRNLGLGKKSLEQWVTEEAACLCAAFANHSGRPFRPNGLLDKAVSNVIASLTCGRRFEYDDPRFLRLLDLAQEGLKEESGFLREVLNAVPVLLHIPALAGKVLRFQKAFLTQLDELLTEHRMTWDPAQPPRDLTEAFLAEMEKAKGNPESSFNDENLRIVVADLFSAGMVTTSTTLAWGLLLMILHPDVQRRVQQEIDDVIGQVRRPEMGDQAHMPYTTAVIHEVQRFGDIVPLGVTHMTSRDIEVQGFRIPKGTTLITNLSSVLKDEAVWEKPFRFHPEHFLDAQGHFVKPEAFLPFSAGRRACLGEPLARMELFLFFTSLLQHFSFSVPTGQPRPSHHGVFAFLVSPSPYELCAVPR
# Sequence of Cytochrome P450 3A4 (P08684 whole entry): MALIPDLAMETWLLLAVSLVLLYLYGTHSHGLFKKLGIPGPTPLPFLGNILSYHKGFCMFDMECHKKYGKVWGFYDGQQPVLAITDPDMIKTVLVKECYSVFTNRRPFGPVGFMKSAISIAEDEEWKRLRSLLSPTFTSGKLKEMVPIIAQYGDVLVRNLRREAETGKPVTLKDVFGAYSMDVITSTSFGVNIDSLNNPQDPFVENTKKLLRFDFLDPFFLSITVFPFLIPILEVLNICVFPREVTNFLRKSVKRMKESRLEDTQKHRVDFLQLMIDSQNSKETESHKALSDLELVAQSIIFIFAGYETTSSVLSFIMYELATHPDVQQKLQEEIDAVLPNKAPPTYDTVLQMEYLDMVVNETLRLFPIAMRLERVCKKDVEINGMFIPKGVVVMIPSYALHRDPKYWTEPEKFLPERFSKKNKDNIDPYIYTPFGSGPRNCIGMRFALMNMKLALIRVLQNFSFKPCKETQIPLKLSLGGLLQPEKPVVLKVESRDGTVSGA
structure (smiles),measurement,setting,value
CC(C)(C)c1ccc(-c2cc(-c3ccccc3O)[nH]n2)cc1,IC50,[1],14.9 µM (inactive)
Cc1ccc2c(c1)N(CC(=O)NC1CCCc3ccccc31)C(=O)CO2 (stereo not given),IC50,[2],> 50 µM (not active)
CC(C)C[C@@H](CC(=O)N[C@@H](CCC(=O)O)CC(=O)O)NC(=O)[C@@H]1CNCC[C@H]1NC(=O)C[C@@H](NC(=O)C[C@H](CO)NC(=O)[C@@H]1CNCC[C@H]1N)C(C)C,AC50,[3],6.31 µM (inconclusive)
Cc1cc(C)c(S(=O)(=O)N2CCN=C2c2ccccc2)cc1C,AC50,[4],7.73 µM (active)
same,AC50,[5],5.08 µM (active)
same,AC50,[6],7.94 µM (active)
same,AC50,[7],10.1 µM (active)
COc1ccc(/N=c2\[nH]c(=O)c3cc([N+](=O)[O-])ccc3s2)cc1,IC50,[8],> 50 µM (not active)
same,IC50,[9],15.5 µM (active)
same,IC50,[10],13.4 µM (active)
c1ccc(-c2nc(NCCCN3CCOCC3)c3ccccc3n2)cc1,IC50,[9],37.2 µM (inactive)
same,IC50,[10],17 µM (active)
same,AC50,[11],32.4 µM (active)
CCc1ccc2oc(-c3ccc(N)cc3)nc2c1,AC50,[12],4.19 µM (active)
same,AC50,[13],7.42 µM (active)
same,AC50,[14],> 52 µM (inactive)
same,AC50,[15],> 52 µM (inactive)
same,IC50,[16],46.2 µM (active)
C=C(C)COc1ccc(-c2[nH]nc(C)c2Oc2ccccc2OC)c(O)c1,IC50,[1],8.72 µM (active)
C=C(C)COc1ccc(-c2n[nH]c(C)c2Oc2ccccc2OC)c(O)c1,IC50,[17],> 69.5 µM (inactive)
CCOCCCNC(=O)c1cnc2ccc(S(=O)(=O)Nc3cccc(OC)c3)cc2c1O,IC50,[2],35.2 µM (not active)
O=[N+]([O-])c1ccc2c(c1NC1CCCCC1)=NC1(CCCCC1)[N+]=2[O-],AC50,[18],3.16 µM (inconclusive)
same,IC50,[19],> 50 µM (not active)
same,AC50,[20],14.1 µM (inconclusive)
CC(=O)O[C@@H]1CC[C@]2(C)[C@H]3CC[C@]4(C)[C@H](C[C@H]5CCCC[C@@]54C(C)=O)[C@@H]3CC(=O)[C@@]2(O)C1,AC50,[3],25.1 µM (inconclusive)
Cc1ccccc1NC(=S)Nc1cccc2cnccc12,IC50,[19],> 50 µM (not active)
CC[C@@]12C(=O)N(c3cccc(F)c3)C(=O)N1[C@H](c1ccc(Cl)cc1)[C@@H]1C(=O)N(C3CCCCC3)C(=O)[C@@H]12,AC50,[4],< 0.26 µM (active)
same,AC50,[5],< 0.26 µM (active)
same,AC50,[6],0.329 µM (active)
same,AC50,[7],0.416 µM (active)
C[C@@]12C(=O)N(c3cccc(Cl)c3)C(=O)N1[C@H](c1ccc(Cl)cc1)[C@@H]1C(=O)N(C3CCCCC3)C(=O)[C@@H]12,AC50,[4],1.31 µM (active)
same,AC50,[5],1.21 µM (active)
same,AC50,[6],11.6 µM (active)
same,AC50,[7],2.26 µM (active)
COc1ccc(-c2cnnc(N/N=C/c3ccc(-c4ccc([N+](=O)[O-])cc4)o3)n2)cc1,IC50,[9],> 80 µM (inactive)
same,IC50,[10],6.62 µM (active)
same,IC50,[21],50 µM (inactive)
C[C@H](CO)N1C[C@H](C)[C@H](CN(C)C(=O)Nc2ccc(C(F)(F)F)cc2)Oc2c(NC(=O)c3ccc(-c4nccs4)cc3)cccc2C1=O,AC50,[22],5 µM (active)
same,AC50,[23],4.22 µM (active)
C[C@H](CO)N1C[C@H](C)[C@H](CN(C)C(=O)NC2CCCCC2)Oc2ncc(-c3cccc(C(F)(F)F)c3)cc2C1=O,AC50,[24],37.8 µM (active)
CN(C)c1ccc(-c2nc3cc(N)ccc3o2)cc1,AC50,[12],3.58 µM (active)
same,AC50,[13],2.28 µM (active)
same,AC50,[15],> 52 µM (inactive)
N#Cc1cccc(-c2ccc([C@@H]3[C@@H]4CN(C(=O)c5ccccn5)C[C@H]3N4)cc2)c1,AC50,[12],13.2 µM (active)
same,AC50,[13],11.1 µM (active)
same,AC50,[14],15 µM (active)
same,AC50,[15],> 52 µM (inactive)
O=C(N/N=C/c1cn(-c2cccs2)nc1-c1ccccc1)c1ccccc1Cl,IC50,[17],> 69.5 µM (inactive)
same,IC50,[1],> 69.5 µM (inactive)
CC(C)[C@H]1COCn2nncc2CCCC(=O)N1,AC50,[22],> 39 µM (inactive)
